Values quoted from earlier work as cited in patent US20140056863A1, “NUTRITIONAL COMPOSITIONS HAVING ALPHA-HICA AND EICOSAPENTAENOIC ACID” (Nestec S.A., priority 2011, published 2014).

Tests used:
[1] = tested on: intestinal mammalian target of rapamycin (mTOR); conditions: piglet stressed with LPS; leading to increased protein synthesis and anti-inflammatory responses
[2] = tested on: malnourished aged animals

O=C(O)CCC(=O)C(=O)O [AKG, α-ketoglutarate]
phosphorylation of intestinal mTOR [1]: increased phosphorylation

NC(=O)NCCC[C@H](N)C(=O)O [Citrulline, citrulline]
anabolic effect [2]: anabolic effect
